Measurements published in the NIST ThermoML archive (doi:10.1021/je7003758).
Numbers after ± are expanded uncertainties.

Assay: xn = mol fraction of the nth substance listed
Conditions: 298.15 K, Liquid

CCCCCl [1-chlorobutane] + CN1CCCC1=O
mass density [kg/m3]
Conditions	x2 = 0.1004	x2 = 0.2002	x2 = 0.2974	x2 = 0.4	x2 = 0.5052	x2 = 0.6019	x2 = 0.7039	x2 = 0.8011	x2 = 0.9002
100 kPa	896.6 ± 0.3	912 ± 0.2	926.8 ± 0.2	942.2 ± 0.2	957.5 ± 0.2	971.7 ± 0.2	986.2 ± 0.2	1000.1 ± 0.2	1014.3 ± 0.2
500 kPa	896.9 ± 0.3	–	927.1 ± 0.2	942.5 ± 0.2	957.8 ± 0.2	972 ± 0.2	986.5 ± 0.2	1000.4 ± 0.2	1014.5 ± 0.2
600 kPa	–	912.3 ± 0.3	–	–	–	–	–	–	–
1000 kPa	897.4 ± 0.3	912.7 ± 0.3	927.5 ± 0.2	942.8 ± 0.2	958.2 ± 0.2	972.2 ± 0.2	986.8 ± 0.2	1000.6 ± 0.2	1014.8 ± 0.2
1500 kPa	897.9 ± 0.3	913.2 ± 0.3	927.9 ± 0.2	943.2 ± 0.2	958.6 ± 0.2	972.6 ± 0.2	987.1 ± 0.2	1000.9 ± 0.2	1015.1 ± 0.2
2000 kPa	898.4 ± 0.3	913.6 ± 0.3	928.4 ± 0.2	943.6 ± 0.2	958.9 ± 0.2	973 ± 0.2	987.4 ± 0.2	1001.2 ± 0.2	1015.3 ± 0.2
2400 kPa	–	–	928.7 ± 0.3	–	–	973.3 ± 0.2	–	–	–
2500 kPa	898.9 ± 0.3	914.1 ± 0.3	–	944 ± 0.2	959.3 ± 0.2	–	987.7 ± 0.2	1001.6 ± 0.2	1015.6 ± 0.2
3000 kPa	899.3 ± 0.3	914.6 ± 0.3	929.2 ± 0.3	944.4 ± 0.2	959.6 ± 0.2	973.6 ± 0.2	988 ± 0.2	1001.8 ± 0.2	1015.9 ± 0.2
3500 kPa	899.8 ± 0.3	915 ± 0.3	929.6 ± 0.3	944.8 ± 0.2	960 ± 0.2	973.9 ± 0.2	988.4 ± 0.2	1002.2 ± 0.2	1016.2 ± 0.2
3900 kPa	–	–	–	–	–	974.2 ± 0.2	–	–	–
4000 kPa	900.3 ± 0.3	915.4 ± 0.3	930 ± 0.3	945.1 ± 0.2	960.3 ± 0.2	–	988.7 ± 0.2	1002.4 ± 0.2	1016.5 ± 0.2
4400 kPa	900.7 ± 0.3	–	–	–	–	–	–	–	1016.7 ± 0.2
4500 kPa	–	915.9 ± 0.3	930.4 ± 0.3	945.6 ± 0.2	960.7 ± 0.2	974.6 ± 0.2	989 ± 0.2	1002.7 ± 0.2	–
4900 kPa	901.2 ± 0.3	–	–	–	–	–	–	–	–
5000 kPa	–	916.3 ± 0.3	930.8 ± 0.3	945.9 ± 0.2	961.1 ± 0.2	–	989.3 ± 0.2	1003 ± 0.2	1017 ± 0.2
5100 kPa	–	–	–	–	–	975 ± 0.2	–	–	–
5400 kPa	901.7 ± 0.3	–	–	–	–	975.2 ± 0.2	–	–	–
5500 kPa	–	916.8 ± 0.3	931.2 ± 0.3	946.3 ± 0.3	961.4 ± 0.2	–	989.6 ± 0.2	1003.3 ± 0.2	1017.3 ± 0.2
5900 kPa	–	917.1 ± 0.3	–	–	–	–	–	–	–
6000 kPa	902.1 ± 0.3	–	931.7 ± 0.3	946.7 ± 0.3	961.8 ± 0.2	975.6 ± 0.2	990 ± 0.2	1003.6 ± 0.2	1017.6 ± 0.2
6500 kPa	902.6 ± 0.3	917.6 ± 0.3	932.1 ± 0.3	947.1 ± 0.3	962.2 ± 0.2	976 ± 0.2	990.2 ± 0.2	1003.9 ± 0.2	1017.8 ± 0.2
6900 kPa	903 ± 0.3	–	932.5 ± 0.3	–	–	–	–	–	–
7000 kPa	–	918.1 ± 0.3	–	947.5 ± 0.3	962.5 ± 0.2	976.3 ± 0.2	990.6 ± 0.2	1004.2 ± 0.2	1018.2 ± 0.2
7500 kPa	903.5 ± 0.3	918.5 ± 0.3	932.8 ± 0.3	–	962.9 ± 0.2	976.6 ± 0.2	990.9 ± 0.2	1004.5 ± 0.2	1018.4 ± 0.2
7600 kPa	–	–	–	948 ± 0.3	–	–	–	–	–
7900 kPa	903.9 ± 0.3	–	–	–	–	–	991.1 ± 0.2	–	–
8000 kPa	–	918.9 ± 0.3	933.3 ± 0.3	948.3 ± 0.3	963.2 ± 0.2	976.9 ± 0.2	–	1004.8 ± 0.2	1018.7 ± 0.2
8400 kPa	–	919.3 ± 0.3	–	–	–	–	–	–	–
8500 kPa	904.4 ± 0.3	–	933.6 ± 0.3	948.6 ± 0.3	963.6 ± 0.2	977.2 ± 0.2	991.5 ± 0.2	1005.1 ± 0.2	1019 ± 0.2
8900 kPa	–	919.7 ± 0.3	–	–	–	977.5 ± 0.2	991.7 ± 0.2	–	–
9000 kPa	904.9 ± 0.3	–	933.9 ± 0.3	949 ± 0.3	963.9 ± 0.2	–	–	1005.4 ± 0.2	1019.2 ± 0.2
9400 kPa	–	–	934.3 ± 0.3	–	–	–	992 ± 0.2	–	–
9500 kPa	905.3 ± 0.3	920.2 ± 0.3	–	949.3 ± 0.3	964.2 ± 0.2	977.9 ± 0.2	–	1005.6 ± 0.2	1019.5 ± 0.2
9900 kPa	–	–	934.8 ± 0.3	–	–	–	–	–	–
10000 kPa	905.8 ± 0.3	920.7 ± 0.3	–	949.8 ± 0.3	964.7 ± 0.2	978.3 ± 0.2	992.4 ± 0.2	–	1019.8 ± 0.2
10100 kPa	–	–	–	–	–	–	–	1006.1 ± 0.2	–
10400 kPa	–	–	–	950.1 ± 0.3	–	–	–	–	–
10500 kPa	–	921.1 ± 0.3	935.3 ± 0.3	–	965 ± 0.2	978.6 ± 0.2	992.7 ± 0.2	1006.3 ± 0.2	1020.1 ± 0.2
10600 kPa	906.4 ± 0.3	–	–	–	–	–	–	–	–
10900 kPa	906.7 ± 0.3	–	–	950.4 ± 0.3	–	–	–	–	–
11000 kPa	–	921.5 ± 0.3	935.6 ± 0.3	–	965.4 ± 0.2	978.9 ± 0.2	993 ± 0.2	1006.6 ± 0.2	1020.4 ± 0.2
11400 kPa	–	921.9 ± 0.3	–	–	–	–	993.3 ± 0.2	–	–
11500 kPa	907.2 ± 0.3	–	936 ± 0.3	950.8 ± 0.3	965.7 ± 0.2	979.3 ± 0.2	–	1006.8 ± 0.2	1020.6 ± 0.2
11900 kPa	–	–	936.3 ± 0.3	–	–	–	–	–	–
12000 kPa	907.6 ± 0.3	922.4 ± 0.3	–	951.2 ± 0.3	966 ± 0.2	979.6 ± 0.2	993.6 ± 0.2	1007.1 ± 0.2	1020.9 ± 0.2
12400 kPa	–	–	–	951.6 ± 0.3	–	979.8 ± 0.2	993.9 ± 0.2	–	–
12500 kPa	908.1 ± 0.3	922.8 ± 0.3	936.8 ± 0.3	–	966.4 ± 0.2	–	–	1007.4 ± 0.2	1021.1 ± 0.2
12900 kPa	–	–	–	–	–	–	–	1007.6 ± 0.2	–
13000 kPa	908.5 ± 0.3	923.2 ± 0.3	937.1 ± 0.3	951.9 ± 0.3	966.7 ± 0.2	980.2 ± 0.2	994.2 ± 0.2	–	1021.4 ± 0.3
13400 kPa	–	–	–	–	–	–	994.5 ± 0.2	–	–
13500 kPa	908.9 ± 0.3	923.6 ± 0.3	937.6 ± 0.3	952.3 ± 0.3	967 ± 0.3	–	–	1008 ± 0.2	1021.7 ± 0.3
13600 kPa	–	–	–	–	–	980.6 ± 0.2	–	–	–
13900 kPa	–	–	–	952.7 ± 0.3	–	–	–	–	–
14000 kPa	–	–	937.8 ± 0.3	–	967.4 ± 0.3	–	994.8 ± 0.2	1008.2 ± 0.2	1022 ± 0.3
14100 kPa	909.5 ± 0.3	924.1 ± 0.3	–	–	–	981 ± 0.2	–	–	–
14400 kPa	–	–	–	953 ± 0.3	967.7 ± 0.3	–	–	–	1022.2 ± 0.3
14500 kPa	909.8 ± 0.3	924.4 ± 0.3	938.2 ± 0.3	–	–	981.1 ± 0.2	995.1 ± 0.2	1008.5 ± 0.2	–
15000 kPa	910.2 ± 0.3	924.7 ± 0.3	938.6 ± 0.3	953.4 ± 0.3	968 ± 0.3	981.5 ± 0.2	–	1008.8 ± 0.2	1022.5 ± 0.3
15100 kPa	–	–	–	–	–	–	995.6 ± 0.2	–	–
15500 kPa	910.7 ± 0.3	925.2 ± 0.3	939 ± 0.3	953.8 ± 0.3	–	981.8 ± 0.2	995.7 ± 0.2	1009.1 ± 0.2	–
15600 kPa	–	–	–	–	968.5 ± 0.3	–	–	–	1022.8 ± 0.3
16000 kPa	911.1 ± 0.3	925.6 ± 0.3	939.4 ± 0.3	954.1 ± 0.3	968.7 ± 0.3	982.1 ± 0.2	996 ± 0.2	1009.3 ± 0.2	1023 ± 0.3
16400 kPa	–	926 ± 0.3	939.7 ± 0.3	–	–	982.4 ± 0.2	–	–	–
16500 kPa	911.5 ± 0.3	–	–	954.4 ± 0.3	969.1 ± 0.3	–	996.3 ± 0.2	1009.6 ± 0.2	1023.2 ± 0.3
16900 kPa	–	–	940.1 ± 0.3	–	–	–	–	–	–
17000 kPa	911.9 ± 0.3	926.3 ± 0.3	–	954.8 ± 0.3	969.4 ± 0.3	982.8 ± 0.2	996.6 ± 0.2	1009.9 ± 0.2	1023.4 ± 0.3
17400 kPa	–	–	940.5 ± 0.3	–	–	–	–	1010.2 ± 0.2	–
17500 kPa	912.3 ± 0.3	926.7 ± 0.3	–	955.2 ± 0.3	969.7 ± 0.3	983 ± 0.2	996.8 ± 0.2	–	1023.8 ± 0.3
18000 kPa	912.7 ± 0.3	927.1 ± 0.3	940.8 ± 0.3	–	970.1 ± 0.3	–	997.2 ± 0.2	1010.5 ± 0.2	1024 ± 0.3
18100 kPa	–	–	–	955.6 ± 0.3	–	983.4 ± 0.2	–	–	–
18500 kPa	913.1 ± 0.3	927.6 ± 0.3	–	955.8 ± 0.3	970.3 ± 0.3	983.6 ± 0.2	997.5 ± 0.2	–	1024.2 ± 0.3
18600 kPa	–	–	941.4 ± 0.3	–	–	–	–	1010.8 ± 0.2	–
19000 kPa	913.6 ± 0.3	928 ± 0.3	941.7 ± 0.3	956.2 ± 0.3	970.8 ± 0.3	984 ± 0.2	–	1011 ± 0.2	1024.5 ± 0.3
19100 kPa	–	–	–	–	–	–	997.9 ± 0.2	–	–
19400 kPa	913.9 ± 0.3	–	–	–	–	–	–	–	–
19500 kPa	–	928.3 ± 0.3	942.1 ± 0.3	956.6 ± 0.3	971 ± 0.3	984.3 ± 0.2	998 ± 0.2	1011.3 ± 0.2	1024.8 ± 0.3
20000 kPa	914.5 ± 0.3	928.7 ± 0.3	942.6 ± 0.3	957 ± 0.3	971.4 ± 0.3	984.6 ± 0.2	998.4 ± 0.2	1011.6 ± 0.2	1025.1 ± 0.3
